Source: patent publication US11254668B2, “Pyrazolo[1,5-A]pyrazin-4-yl and related derivatives” (Pfizer Inc., priority 2017, dated 2022)
pIC50: −log10 of the molar value. Where two headings read alike, the source gives them in different places.

Legend:
[1] = molecular target: TYK2 (Homo sapiens (Human), UniProt P29597); test: JAK Caliper Enzyme Assay at 1 mM ATP, TYK2; type: biochemical
How it was run: (§1)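 Peptide phosphorylation by recombinant human kinase domain, 1 mM ATP, room temperature, EDTA-terminated, detected by microfluidic mobility shift; % effect normalised to DMSO baseline.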

[2] = molecular target: JAK1 (Homo sapiens (Human), UniProt P23458); test: JAK Caliper Enzyme Assay at 1 mM ATP, JAK1; type: biochemical
Chain of JAK1 (P23458 875-1153): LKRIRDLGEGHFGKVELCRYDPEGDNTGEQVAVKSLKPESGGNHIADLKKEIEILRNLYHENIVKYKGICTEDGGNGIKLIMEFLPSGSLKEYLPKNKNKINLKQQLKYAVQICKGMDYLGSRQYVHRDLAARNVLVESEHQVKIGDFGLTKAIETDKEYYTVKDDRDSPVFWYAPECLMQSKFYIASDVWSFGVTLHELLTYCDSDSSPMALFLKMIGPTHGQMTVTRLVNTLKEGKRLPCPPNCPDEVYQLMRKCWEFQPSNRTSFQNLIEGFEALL
How it was run: (§2)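 IC50 (nM) derived from percent conversion of fluorescently labelled peptide, measured by Caliper LabChip mobility-shift separation after EDTA stop. Each JAK family kinase domain (human, recombinant) run at 1 mM ATP and room temperature, conditions set to 20-30% product; DMSO wells define uninhibited baseline.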

[3] = molecular target: JAK2 (Homo sapiens (Human), UniProt O60674); test: JAK Caliper Enzyme Assay at 1 mM ATP, JAK2; type: biochemical
Chain of JAK2 (O60674 849-1124): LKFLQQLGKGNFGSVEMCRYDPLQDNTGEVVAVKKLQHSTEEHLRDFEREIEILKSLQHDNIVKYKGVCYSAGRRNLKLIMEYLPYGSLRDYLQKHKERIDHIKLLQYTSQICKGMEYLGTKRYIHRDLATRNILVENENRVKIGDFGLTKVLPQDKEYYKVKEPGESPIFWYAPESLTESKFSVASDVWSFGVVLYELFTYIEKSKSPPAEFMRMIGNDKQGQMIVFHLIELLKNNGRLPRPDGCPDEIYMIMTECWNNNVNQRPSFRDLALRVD
How it was run: as §1

[4] = molecular target: JAK3 (Homo sapiens (Human), UniProt P52333); test: JAK Caliper Enzyme Assay at 1 mM ATP, JAK3; type: biochemical
Chain of JAK3 (P52333 822-1111): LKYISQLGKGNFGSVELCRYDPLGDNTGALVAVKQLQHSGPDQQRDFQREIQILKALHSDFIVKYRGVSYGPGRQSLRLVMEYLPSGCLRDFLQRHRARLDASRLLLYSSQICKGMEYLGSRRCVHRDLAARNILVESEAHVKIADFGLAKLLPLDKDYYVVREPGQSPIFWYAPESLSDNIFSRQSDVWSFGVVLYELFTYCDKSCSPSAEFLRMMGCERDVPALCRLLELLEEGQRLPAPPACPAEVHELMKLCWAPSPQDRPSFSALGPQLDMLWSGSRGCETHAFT
How it was run: as §2

[5] = system: IL-12 signaling (TYK2 and JAK2), STAT4 phosphorylation; test: Human Whole Blood IL-12 Induced STAT4 Phosphorylation Assay; type: cell-based; conditions: IL-12 5 ng/mL, pSTAT4 in lymphocytes by flow cytometry
Method: Selected compounds were assessed for their ability to inhibit IL-12 signaling in a human whole blood flow cytometry assay. IL-12 signals through TYK2 and JAK2.
Human Whole Blood IL-12 Induced STAT4 Phosphorylation Assay
Test articles were prepared as 30 mM stocks in DMSO. An 11-point 2.5 dilution series was created in DMSO with a top concentration of 10 mM. Further dilution was done by adding 4 μL of the above test article solutions into 96 μL of PBS with a top concentration of 400 μM. Human whole blood was collected from healthy donors via vein puncture into Vacutainer collection tubes containing sodium heparin (Catalog No. 366480; Becton Dickinson, Franklin Lakes, N.J.). Blood was warmed to 37° C. prior to use. Human whole blood was aliquoted ([…]) in 96-well, deep-well, V-bottom plates and treated with compounds at 11 different concentrations (0.2% DMSO final) at 37° C. for 60 minutes. This was followed by a challenge with IL-12 ([…]; final, 5 ng/mL) for 15 minutes. Samples were treated with warm 1× Lyse/Fix buffer ([…]) to terminate activation and further incubated at 37° C. for 20 minutes to lyse red blood cells. Plates were centrifuged at 300×g for 5 minutes, supernatant was aspirated, and cells were washed with […] of staining buffer (PBS containing 0.5% fetal bovine serum and 0.01% sodium azide). The washed cell pellets were resuspended with […] of pre-chilled 90% methanol, and incubated at 4° C. for 30 minutes. Plates were centrifuged at 300×g for 5 minutes, supernatant containing 90% methanol was aspirated, and cells were washed with […] of staining buffer. Cell pellets were resuspended in staining buffer containing anti-pSTAT4-AlexaFluor647 (1 to 150 dilution, […]), and incubated at room temperature in the dark overnight.
Samples were transferred to 96-well U-bottom plates and flow cytometric analysis was performed on a FACSCalibur or LSRFortessa equipped with a HTS plate loader (BD Biosciences). The lymphocyte population was gated for histogram analysis of pSTAT4. Background fluorescence was defined using unstimulated cells and a gate was placed at the foot of the peak to include ˜0.5% gated population. The histogram statistical analysis was performed using CellQuestÔ Pro version 5.2.1 (BD Biosciences) or FACSDiva version 6.2 (BD Biosciences) software. Relative fluorescence unit (RFU), which measures the level of phospho STAT4, was calculated by multiplying the percent positive population and its mean fluorescence. Data from 11 compound concentrations (singlicate at each concentration) was normalized as a percentage of control based on the formula: % of Control=100'(A−B)/(C−B) where A is the RFU from wells containing compound and IL-12, B is the RFU from wells without IL-12 and compound (minimum fluorescence) and C is the RFU from wells containing only IL-12 (maximum fluorescence). Inhibition curves and IC50 values were determined using the Prism version 5 software (GraphPad, La Jolla, Calif.).

Chain of TYK2 (P29597 897-1176): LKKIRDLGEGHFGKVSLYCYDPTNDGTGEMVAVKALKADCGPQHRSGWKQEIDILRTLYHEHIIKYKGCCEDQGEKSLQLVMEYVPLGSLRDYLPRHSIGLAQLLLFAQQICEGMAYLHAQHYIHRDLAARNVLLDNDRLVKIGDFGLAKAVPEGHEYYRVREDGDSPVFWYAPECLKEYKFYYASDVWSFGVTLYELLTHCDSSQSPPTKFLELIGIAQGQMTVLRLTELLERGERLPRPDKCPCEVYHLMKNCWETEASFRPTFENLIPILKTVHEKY

Molecule	pIC50 [1]	pIC50 [2]	pIC50 [3]	pIC50 [4]	pIC50 [5]	pIC50 ([1]; JAK Caliper enzyme assay)	pIC50 ([2]; JAK Caliper enzyme assay)	pIC50 ([3]; JAK Caliper enzyme assay)	pIC50 ([4]; JAK Caliper enzyme assay)
N#CC[C@]1(n2ccc(-c3nc(-c4cc(N)[nH]n4)cc4ncccc34)n2)C[C@H](C#N)C1 [Example 41, trans-3-{3-[7-(5-amino-1H-pyrazol-3-yl)-1,6-naphthyridin-5-yl]-1H-pyrazol-1-yl}-3-(cyanomethyl)cyclobutanecarbonitrile]	8.10	7.85	7.68	5.91	7.12	–	–	–	–
N#CC[C@H]1C[C@@](CC#N)(n2ccc(-c3nc(-c4cn[nH]c4)cc4ncccc34)n2)C1 [Example 78, 2,2′-(cis-1-{3-[7-(1H-pyrazol-4-yl)-1,6-naphthyridin-5-yl]-1H-pyrazol-1-yl}cyclobutane-1,3-diyl)diacetonitrile]	7.85	6.76	6.98	5.06	7.12	–	–	–	–
Cn1cc(-c2cc3ncccc3c(-c3ccn([C@]4(CC#N)C[C@H](C#N)C4)n3)n2)cn1 [Example 103, cis-3-(cyanomethyl)-3-{3-[7-(1-methyl-1H-pyrazol-4-yl)-1,6-naphthyridin-5-yl]-1H-pyrazol-1-yl}cyclobutanecarbonitrile]	8.15	7.26	7.89	6.06	7.40	–	–	–	–
N#CC[C@]1(n2cc(-c3cc(-c4c[nH]nc4N)cc4nccn34)cn2)C[C@@H](C#N)C1 [Example 466, cis-3-{4-[7-(3-amino-1H-pyrazol-4-yl)imidazo[1,2-a]pyridin-5-yl]-1H-pyrazol-1-yl}-3-(cyanomethyl)cyclobutanecarbonitrile]	–	–	–	–	–	7.14	5.57	5.90	< 5.00
N#CC[C@]1(n2cc(-c3cc(-c4nc(CO)cs4)cc4nccn34)cn2)C[C@@H](C#N)C1 [Example 467, cis-3-(cyanomethyl)-3-(4-{7-[4-(hydroxymethyl)-1,3-thiazol-2-yl]imidazo[1,2-a]pyridin-5-yl}-1H-pyrazol-1-yl)cyclobutanecarbonitrile]	–	–	–	–	–	7.29	5.80	6.29	< 5.00
N#CC[C@]1(n2cc(-c3cc(-c4ccc(O)cc4)cc4nccn34)cn2)C[C@@H](C#N)C1 [Example 468, cis-3-(cyanomethyl)-3-{4-[7-(4-hydroxyphenyl)imidazo[1,2-a]pyridin-5-yl]-1H-pyrazol-1-yl}cyclobutanecarbonitrile]	–	–	–	–	–	6.90	5.82	5.91	< 5.00
N#CC[C@]1(n2cc(-c3cc(-c4ccc(N)nc4)cc4nccn34)cn2)C[C@@H](C#N)C1 [Example 469, cis-3-{4-[7-(6-aminopyridin-3-yl)imidazo[1,2-a]pyridin-5-yl]-1H-pyrazol-1-yl}-3-(cyanomethyl)cyclobutanecarbonitrile]	–	–	–	–	–	6.99	5.62	5.98	< 5.00
N#CC[C@]1(n2cc(-c3cc(-c4cccc(C(N)=O)n4)cc4nccn34)cn2)C[C@H](C#N)C1 [Example 470, 6-(5-{1-[cis-3-cyano-1-(cyanomethyl)cyclobutyl]-1H-pyrazol-4-yl}imidazo[1,2-a]pyridin-7-yl)pyridine-2-carboxamide]	–	–	–	–	–	7.60	6.21	6.83	< 5.00
Cn1cc(-c2cc(-c3cnn([C@]4(CC#N)C[C@H](C#N)C4)n3)n3ccnc3c2)cn1 [Example 473, cis-3-(cyanomethyl)-3-{4-[7-(1-methyl-1H-pyrazol-4-yl)imidazo[1,2-a]pyridin-5-yl]-2H-1,2,3-triazol-2-yl}cyclobutanecarbonitrile]	–	–	–	–	–	7.05	5.19	5.71	< 5.00
Cn1cc(-c2cc(-c3cnn(C4(CC#N)CC(C#N)C4)n3)n3ccnc3c2)cn1 (stereo not drawn) [Example 474, trans-3-(cyanomethyl)-3-{4-[7-(1-methyl-1H-pyrazol-4-yl)imidazo[1,2-a]pyridin-5-yl]-2H-1,2,3-triazol-2-yl}cyclobutanecarbonitrile]	–	–	–	–	–	5.95	< 5.00	< 5.00	< 5.00
Cn1cc(-c2cc(-c3cnn(C4(CC#N)CN(CC(F)(F)F)C4)c3)n3ncnc3c2)cn1 [Example 475, [3-{4-[7-(1-methyl-1H-pyrazol-4-yl)[1,2,4]triazolo[1,5-a]pyridin-5-yl]-1H-pyrazol-1-yl}-1-(2,2,2-trifluoroethyl)azetidin-3-yl]acetonitrile]	–	–	–	–	–	6.34	5.18	5.16	< 5.00
Cn1cc(-c2cc(-c3ccn(C4(CC#N)CN(CC(F)(F)F)C4)n3)n3ncnc3c2)cn1 [Example 476, [3-{3-[7-(1-methyl-1H-pyrazol-4-yl)[1,2,4]triazolo[1,5-a]pyridin-5-yl]-1H-pyrazol-1-yl}-1-(2,2,2-trifluoroethyl)azetidin-3-yl]acetonitrile]	–	–	–	–	–	6.32	6.16	6.31	5.14
Cn1cc(-c2cn3ncnc3c(-c3cnn(C4(CC#N)CN(CC#N)C4)c3)n2)cn1 [Example 477, 2,2′-(3-{4-[6-(1-methyl-1H-pyrazol-4-yl)[1,2,4]triazolo[1,5-a]pyrazin-8-yl]-1H-pyrazol-1-yl}azetidine-1,3-diyl)diacetonitrile]	–	–	–	–	–	6.58	< 5.00	5.58	< 5.00
Cn1cc(-c2cn3ncnc3c(-c3cnn(C4(CC#N)CN(S(C)(=O)=O)C4)c3)n2)cn1 [Example 478, [3-{4-[6-(1-methyl-1H-pyrazol-4-yl)[1,2,4,5-a]pyrazin-8-yl]-1H-pyrazol-1-yl}-1-(methylsulfonyl)azetidin-3-yl]acetonitrile]	–	–	–	–	–	6.55	< 5.00	5.66	< 5.00
Cn1cc(-c2cc3nccnc3c(-c3cnn(C4(CC#N)CN(CC(F)(F)F)C4)c3)n2)cn1 [Example 479, [3-{4-[7-(1-methyl-1H-pyrazol-4-yl)pyrido[3,4-b]pyrazin-5-yl]-1H-pyrazol-1-yl}-1-(2,2,2-trifluoroethyl)azetidin-3-yl]acetonitrile]	–	–	–	–	–	7.96	6.77	7.62	5.47
Cn1cc(-c2cc3nccnc3c(-c3cnn(C4(CC#N)CN(CC#N)C4)c3)n2)cn1 [Example 480, 2,2′-(3-{4-[7-(1-methyl-1H-pyrazol-4-yl)pyrido[3,4-b]pyrazin-5-yl]-1H-pyrazol-1-yl}azetidine-1,3-diyl)diacetonitrile]	–	–	–	–	–	7.96	6.84	7.77	5.43
Cn1cc(-c2cc3nccnc3c(-c3ccn(C4(CC#N)CN(CC#N)C4)n3)n2)cn1 [Example 481]	–	–	–	–	–	5.86	< 5.00	5.45	< 5.00
Cn1cc(-c2cc3nccnc3c(-c3ccn(C4(CC#N)CN(CC(F)(F)F)C4)n3)n2)cn1 [Example 482, [3-{3-[7-(1-methyl-1H-pyrazol-4-yl)pyrido[3,4-b]pyrazin-5-yl]-1H-pyrazol-1-yl}-1-(2,2,2-trifluoroethyl)azetidin-3-yl]acetonitrile]	–	–	–	–	–	5.42	< 5.00	< 5.00	< 5.00
[3-(4-{7-[1-(oxetan-3-yl)-1H-pyrazol-4-yl]-1,6-naphthyridin-5-yl}-1H-pyrazol-1-yl)-1-(2,2,2-trifluoroethyl)azetidin-3- [Example 10]	7.70	7.07	8.00	5.70	–	–	–	–	–
